Article PMC4741971, “The dual topoisomerase inhibitor A35 preferentially and specially targets topoisomerase 2α by enhancing pre-strand and post-strand cleavage and inhibiting DNA religation” (Oncotarget, 2015)
pIC50: −log10 of the molar value.

Experiments:
Assay type in all cases: biochemical
[1] = target: T1, top1 (Homo sapiens, UniProt P11387); assay: top1-mediated DNA relaxation assay; also top1-mediated DNA cleavage and TARDIS in cells
T1 sequence (P11387 2-765): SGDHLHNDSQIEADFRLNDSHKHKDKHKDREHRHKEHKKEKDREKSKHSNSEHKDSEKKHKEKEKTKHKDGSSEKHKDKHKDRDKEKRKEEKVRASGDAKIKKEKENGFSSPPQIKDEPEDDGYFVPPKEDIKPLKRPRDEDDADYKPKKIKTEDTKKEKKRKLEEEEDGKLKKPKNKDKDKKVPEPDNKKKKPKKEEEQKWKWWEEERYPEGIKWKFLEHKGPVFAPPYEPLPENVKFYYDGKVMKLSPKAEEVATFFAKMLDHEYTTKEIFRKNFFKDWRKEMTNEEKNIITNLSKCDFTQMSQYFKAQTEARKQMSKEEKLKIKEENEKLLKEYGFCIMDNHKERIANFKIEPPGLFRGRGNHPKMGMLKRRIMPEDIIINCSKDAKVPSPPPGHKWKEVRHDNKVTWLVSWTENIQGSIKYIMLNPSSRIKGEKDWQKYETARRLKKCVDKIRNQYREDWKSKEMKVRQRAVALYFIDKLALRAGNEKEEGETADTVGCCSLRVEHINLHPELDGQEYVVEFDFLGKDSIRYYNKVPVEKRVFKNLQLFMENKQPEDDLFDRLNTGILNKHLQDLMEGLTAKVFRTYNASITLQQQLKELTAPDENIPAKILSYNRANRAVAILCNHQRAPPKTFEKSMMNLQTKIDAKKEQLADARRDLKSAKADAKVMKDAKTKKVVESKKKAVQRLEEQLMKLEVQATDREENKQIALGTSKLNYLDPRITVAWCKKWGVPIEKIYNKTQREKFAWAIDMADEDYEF

[2] = target: T2, top2α (Homo sapiens, UniProt P11388); assay: top2α-mediated pBR322 DNA relaxation assay; also cleavage and religation assays and TARDIS in cells
T2 construct: gene TOP2A
T2 sequence (P11388 whole entry): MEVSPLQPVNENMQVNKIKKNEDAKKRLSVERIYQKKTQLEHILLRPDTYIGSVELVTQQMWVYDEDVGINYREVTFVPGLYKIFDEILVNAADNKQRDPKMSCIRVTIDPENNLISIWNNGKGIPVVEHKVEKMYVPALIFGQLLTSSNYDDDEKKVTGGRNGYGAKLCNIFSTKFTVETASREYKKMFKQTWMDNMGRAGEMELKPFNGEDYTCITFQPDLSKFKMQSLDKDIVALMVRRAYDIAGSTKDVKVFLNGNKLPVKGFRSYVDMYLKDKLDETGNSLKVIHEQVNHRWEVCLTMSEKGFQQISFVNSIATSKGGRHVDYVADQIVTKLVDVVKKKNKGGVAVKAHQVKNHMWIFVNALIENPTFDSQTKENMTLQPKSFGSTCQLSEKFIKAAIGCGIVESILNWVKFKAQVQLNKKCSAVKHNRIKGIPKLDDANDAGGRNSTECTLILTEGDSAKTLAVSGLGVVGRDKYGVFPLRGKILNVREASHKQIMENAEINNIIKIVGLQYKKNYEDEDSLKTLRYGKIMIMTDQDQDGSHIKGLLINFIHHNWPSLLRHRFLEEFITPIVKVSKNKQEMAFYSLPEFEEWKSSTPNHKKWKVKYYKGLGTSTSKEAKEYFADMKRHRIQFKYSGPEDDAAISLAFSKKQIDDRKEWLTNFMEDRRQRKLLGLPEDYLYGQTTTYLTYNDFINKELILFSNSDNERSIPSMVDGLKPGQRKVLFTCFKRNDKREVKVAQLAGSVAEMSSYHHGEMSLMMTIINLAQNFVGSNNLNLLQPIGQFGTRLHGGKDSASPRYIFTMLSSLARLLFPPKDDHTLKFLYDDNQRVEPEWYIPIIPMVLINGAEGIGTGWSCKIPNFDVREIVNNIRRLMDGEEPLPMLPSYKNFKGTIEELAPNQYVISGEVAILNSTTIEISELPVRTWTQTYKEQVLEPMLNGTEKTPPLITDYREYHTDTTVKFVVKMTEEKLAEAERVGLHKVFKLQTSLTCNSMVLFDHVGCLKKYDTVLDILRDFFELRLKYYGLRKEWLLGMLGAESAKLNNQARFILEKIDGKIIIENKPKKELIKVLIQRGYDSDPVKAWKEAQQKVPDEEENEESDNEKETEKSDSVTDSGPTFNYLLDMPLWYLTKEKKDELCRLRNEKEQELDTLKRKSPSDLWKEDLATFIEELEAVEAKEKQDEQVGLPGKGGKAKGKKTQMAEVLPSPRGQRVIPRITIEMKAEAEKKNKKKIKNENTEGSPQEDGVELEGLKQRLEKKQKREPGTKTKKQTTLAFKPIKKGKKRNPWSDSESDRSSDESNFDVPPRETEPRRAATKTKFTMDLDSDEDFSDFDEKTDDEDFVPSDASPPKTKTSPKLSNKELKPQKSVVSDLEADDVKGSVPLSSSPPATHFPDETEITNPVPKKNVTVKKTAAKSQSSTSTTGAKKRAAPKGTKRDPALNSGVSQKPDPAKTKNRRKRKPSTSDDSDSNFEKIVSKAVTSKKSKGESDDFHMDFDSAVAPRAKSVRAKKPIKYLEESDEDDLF

[3] = target: T3, top2β (Homo sapiens, UniProt Q02880); assay: purified top2β-mediated pBR322 DNA cleavage assay
T3 construct: gene TOP2B
T3 sequence (Q02880 2-1626): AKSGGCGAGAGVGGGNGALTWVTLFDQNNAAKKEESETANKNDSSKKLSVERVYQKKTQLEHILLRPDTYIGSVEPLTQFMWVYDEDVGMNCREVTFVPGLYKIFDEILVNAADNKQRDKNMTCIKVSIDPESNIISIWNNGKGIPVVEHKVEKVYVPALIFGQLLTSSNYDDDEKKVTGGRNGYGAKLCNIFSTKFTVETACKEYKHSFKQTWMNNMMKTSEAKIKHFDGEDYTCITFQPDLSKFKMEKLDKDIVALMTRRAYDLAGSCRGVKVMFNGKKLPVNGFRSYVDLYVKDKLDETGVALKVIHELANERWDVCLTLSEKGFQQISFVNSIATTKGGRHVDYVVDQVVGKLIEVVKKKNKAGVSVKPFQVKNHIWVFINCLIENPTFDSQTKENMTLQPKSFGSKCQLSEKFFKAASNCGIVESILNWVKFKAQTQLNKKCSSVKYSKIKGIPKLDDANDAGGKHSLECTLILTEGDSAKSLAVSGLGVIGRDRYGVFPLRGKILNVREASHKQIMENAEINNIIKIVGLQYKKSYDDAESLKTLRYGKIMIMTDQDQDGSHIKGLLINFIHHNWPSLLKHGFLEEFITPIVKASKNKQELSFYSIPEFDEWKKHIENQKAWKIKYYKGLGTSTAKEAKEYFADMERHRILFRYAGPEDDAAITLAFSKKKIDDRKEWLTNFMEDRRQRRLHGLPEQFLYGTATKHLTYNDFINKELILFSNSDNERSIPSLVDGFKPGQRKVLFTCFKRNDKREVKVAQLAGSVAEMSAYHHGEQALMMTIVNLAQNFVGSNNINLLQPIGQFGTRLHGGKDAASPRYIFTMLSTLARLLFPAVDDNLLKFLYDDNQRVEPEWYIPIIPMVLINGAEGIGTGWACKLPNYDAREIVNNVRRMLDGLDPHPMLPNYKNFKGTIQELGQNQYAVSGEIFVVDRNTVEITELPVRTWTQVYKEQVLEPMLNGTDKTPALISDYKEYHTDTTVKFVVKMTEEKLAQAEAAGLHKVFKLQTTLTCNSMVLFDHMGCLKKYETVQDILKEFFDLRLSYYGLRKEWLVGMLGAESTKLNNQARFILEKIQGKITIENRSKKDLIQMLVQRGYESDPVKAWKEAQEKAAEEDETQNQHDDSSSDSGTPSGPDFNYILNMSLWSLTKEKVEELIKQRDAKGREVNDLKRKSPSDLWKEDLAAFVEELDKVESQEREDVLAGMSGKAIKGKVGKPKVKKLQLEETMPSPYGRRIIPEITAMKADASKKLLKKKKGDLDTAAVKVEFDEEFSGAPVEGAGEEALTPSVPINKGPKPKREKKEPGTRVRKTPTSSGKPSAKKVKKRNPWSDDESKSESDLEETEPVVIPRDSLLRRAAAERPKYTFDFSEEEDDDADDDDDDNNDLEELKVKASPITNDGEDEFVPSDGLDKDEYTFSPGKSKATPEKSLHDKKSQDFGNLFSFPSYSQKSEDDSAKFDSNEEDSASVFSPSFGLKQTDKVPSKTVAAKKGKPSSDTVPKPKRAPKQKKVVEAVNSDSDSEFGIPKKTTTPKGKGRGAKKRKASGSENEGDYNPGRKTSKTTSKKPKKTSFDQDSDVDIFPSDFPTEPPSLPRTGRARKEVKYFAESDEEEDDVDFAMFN

[4] = target: T2, top2α; assay: top2α-mediated pBR322 DNA relaxation assay at […]
[5] = target: T1, top1; assay: top1-mediated cleavage of […]'-end-labeled 117-bp oligonucleotide

Compound COc1ccc2c(c[n+]3c4c2ccc2c5c(cc(c24)CC3)OCO5)c1OC(=O)c1ccccc1 [A35] has a pIC50 [1] of 4.66 and a pIC50 [2] of 6.25.
COc1cc([C@@H]2c3cc4c(cc3[C@@H](O[C@@H]3O[C@@H]5CO[C@@H](C)O[C@H]5[C@H](O)[C@H]3O)[C@H]3COC(=O)[C@H]23)OCO4)cc(OC)c1O [VP16, etoposide] was tested, and the “purified top2β-mediated pBR322 DNA cleavage assay” value [3] was “A35 did not lead to DNA breakage mediated by top2β and the positive (VP16) control induced significant DNA breakage” and the “top2α-mediated pBR322 DNA relaxation assay at 10 μM” value [4] was “inhibitory activity of A35 on top top2α was much higher than that of etoposide (VP16)”.
CC[C@@]1(O)C(=O)OCc2c1cc1n(c2=O)Cc2cc3c(CN(C)C)c(O)ccc3nc2-1 [TPT, topotecan] was tested, and the “top1-mediated cleavage of 3'-end-labeled 117-bp oligonucleotide” value [5] was “the DNA breakage effect was weak and far less than the positive control TPT (topotecan)”.
